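Here, GI50 denotes the concentration required for 50% inhibition of growth. TGI is the concentration that stops growth completely.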
What was measured:
Assay in all cases: DTP human tumour cell line panel, 384-well format
MDA-MB-435 melanoma = system: MDA-MB-435 melanoma
DU-145 prostate = system: DU-145 prostate
KM12 colon = system: KM12 colon
OVCAR-8 ovarian = system: OVCAR-8 ovarian
BT-549 breast = system: BT-549 breast
EKVX NSCLC = system: EKVX NSCLC
SK-OV-3 ovarian = system: SK-OV-3 ovarian
OVCAR-3 ovarian = system: OVCAR-3 ovarian
NCI/ADR-RES ovarian = system: NCI/ADR-RES ovarian
MALME-3M melanoma = system: MALME-3M melanoma
A498 renal = system: A498 renal
UACC-62 melanoma = system: UACC-62 melanoma
HCC-2998 colon = system: HCC-2998 colon
NCI-H522 lung = system: NCI-H522 lung
RPMI-8226 leukemia = system: RPMI-8226 leukemia
NCI-H322M lung = system: NCI-H322M lung
HT29 colon = system: HT29 colon
UO-31 renal = system: UO-31 renal
A549 NSCLC = system: A549 NSCLC
SW-620 colon = system: SW-620 colon
TK-10 renal = system: TK-10 renal
SN12C renal = system: SN12C renal
OVCAR-4 ovarian = system: OVCAR-4 ovarian
SK-MEL-5 melanoma = system: SK-MEL-5 melanoma
T-47D breast = system: T-47D breast
HS 578T breast = system: HS 578T breast
LOX IMVI melanoma = system: LOX IMVI melanoma
HL-60(TB) leukemia = system: HL-60(TB) leukemia
MCF7 breast = system: MCF7 breast
HOP-62 NSCLC = system: HOP-62 NSCLC
SNB-75 CNS = system: SNB-75 CNS
RXF 393 renal = system: RXF 393 renal
M14 melanoma = system: M14 melanoma
UACC-257 melanoma = system: UACC-257 melanoma
NCI-H23 lung = system: NCI-H23 lung
MDA-MB-468 breast = system: MDA-MB-468 breast
NCI-H226 lung = system: NCI-H226 lung
COLO 205 colon = system: COLO 205 colon
CCRF-CEM leukemia = system: CCRF-CEM leukemia
MOLT-4 leukemia = system: MOLT-4 leukemia
SR leukemia = system: SR leukemia
IGROV1 ovarian = system: IGROV1 ovarian
SNB-19 CNS = system: SNB-19 CNS
HCT-15 colon = system: HCT-15 colon
HOP-92 NSCLC = system: HOP-92 NSCLC
OVCAR-5 ovarian = system: OVCAR-5 ovarian
PC-3 prostate = system: PC-3 prostate
786-0 renal = system: 786-0 renal
CAKI-1 renal = system: CAKI-1 renal
ACHN renal = system: ACHN renal
SF-268 CNS = system: SF-268 CNS
SK-MEL-28 melanoma = system: SK-MEL-28 melanoma
SF-539 CNS = system: SF-539 CNS
K-562 leukemia = system: K-562 leukemia
MDA-MB-231 breast = system: MDA-MB-231 breast
NCI-H460 NSCLC = system: NCI-H460 NSCLC
SF-295 CNS = system: SF-295 CNS

C[C@H]1COCCN1c1nc(-c2cnc(N)cc2C(F)F)nc(N2CCOCC2)n1
GI50 (MDA-MB-435 melanoma): 275 nM
TGI (MDA-MB-435 melanoma): 2520 nM
GI50 (DU-145 prostate): 308 nM
TGI (DU-145 prostate): > 100000 nM
GI50 (KM12 colon): 294 nM
TGI (KM12 colon): 12000 nM
GI50 (OVCAR-8 ovarian): 307 nM
TGI (OVCAR-8 ovarian): > 100000 nM
GI50 (BT-549 breast): 175 nM
TGI (BT-549 breast): 758 nM
GI50 (EKVX NSCLC): 189 nM
TGI (EKVX NSCLC): 780 nM
GI50 (SK-OV-3 ovarian): 129 nM
TGI (SK-OV-3 ovarian): 441 nM
GI50 (OVCAR-3 ovarian): 270 nM
TGI (OVCAR-3 ovarian): 2930 nM
GI50 (NCI/ADR-RES ovarian): 399 nM
TGI (NCI/ADR-RES ovarian): > 100000 nM
GI50 (MALME-3M melanoma): 50.7 nM
TGI (MALME-3M melanoma): 309 nM
GI50 (A498 renal): 49.3 nM
TGI (A498 renal): 447 nM
GI50 (UACC-62 melanoma): 227 nM
TGI (UACC-62 melanoma): 1490 nM
GI50 (HCC-2998 colon): 423 nM
TGI (HCC-2998 colon): 12400 nM
GI50 (NCI-H522 lung): 206 nM
TGI (NCI-H522 lung): 1630 nM
GI50 (RPMI-8226 leukemia): 30.7 nM
TGI (RPMI-8226 leukemia): 155 nM
GI50 (NCI-H322M lung): 203 nM
TGI (NCI-H322M lung): 10900 nM
GI50 (HT29 colon): 263 nM
TGI (HT29 colon): 55300 nM
GI50 (UO-31 renal): 321 nM
TGI (UO-31 renal): > 100000 nM
GI50 (A549 NSCLC): 221 nM
TGI (A549 NSCLC): 2750 nM
GI50 (SW-620 colon): 554 nM
TGI (SW-620 colon): > 100000 nM
GI50 (TK-10 renal): 254 nM
TGI (TK-10 renal): 2010 nM
GI50 (SN12C renal): 138 nM
TGI (SN12C renal): 772 nM
GI50 (OVCAR-4 ovarian): 115 nM
TGI (OVCAR-4 ovarian): 585 nM
GI50 (SK-MEL-5 melanoma): 143 nM
TGI (SK-MEL-5 melanoma): 417 nM
GI50 (T-47D breast): 19.7 nM
TGI (T-47D breast): 106 nM
GI50 (HS 578T breast): 52.8 nM
TGI (HS 578T breast): 273 nM
GI50 (LOX IMVI melanoma): 242 nM
TGI (LOX IMVI melanoma): 1170 nM
GI50 (HL-60(TB) leukemia): 289 nM
TGI (HL-60(TB) leukemia): 2820 nM
GI50 (MCF7 breast): 45.3 nM
TGI (MCF7 breast): 3080 nM
GI50 (HOP-62 NSCLC): 261 nM
TGI (HOP-62 NSCLC): 4410 nM
GI50 (SNB-75 CNS): 117 nM
TGI (SNB-75 CNS): 810 nM
GI50 (RXF 393 renal): 315 nM
TGI (RXF 393 renal): 2880 nM
GI50 (M14 melanoma): 191 nM
TGI (M14 melanoma): 27400 nM
GI50 (UACC-257 melanoma): 389 nM
TGI (UACC-257 melanoma): 3210 nM
GI50 (NCI-H23 lung): 184 nM
TGI (NCI-H23 lung): 30700 nM
GI50 (MDA-MB-468 breast): 172 nM
TGI (MDA-MB-468 breast): 487 nM
GI50 (NCI-H226 lung): 159 nM
TGI (NCI-H226 lung): 649 nM
GI50 (COLO 205 colon): 201 nM
TGI (COLO 205 colon): 11800 nM
GI50 (CCRF-CEM leukemia): 224 nM
TGI (CCRF-CEM leukemia): 1680 nM
GI50 (MOLT-4 leukemia): 103 nM
TGI (MOLT-4 leukemia): 406 nM
GI50 (SR leukemia): 125 nM
TGI (SR leukemia): 370 nM
GI50 (IGROV1 ovarian): 53.8 nM
TGI (IGROV1 ovarian): 265 nM
GI50 (SNB-19 CNS): 2330 nM
TGI (SNB-19 CNS): > 100000 nM
GI50 (HCT-15 colon): 181 nM
TGI (HCT-15 colon): 30900 nM
GI50 (HOP-92 NSCLC): 102 nM
TGI (HOP-92 NSCLC): 462 nM
GI50 (OVCAR-5 ovarian): 163 nM
TGI (OVCAR-5 ovarian): 1170 nM
GI50 (PC-3 prostate): 166 nM
TGI (PC-3 prostate): 10100 nM
GI50 ([…]-0 renal): 385 nM
TGI (786-0 renal): 6130 nM
GI50 (CAKI-1 renal): 196 nM
TGI (CAKI-1 renal): 3960 nM
GI50 (ACHN renal): 247 nM
TGI (ACHN renal): 3830 nM
GI50 (SF-268 CNS): 311 nM
TGI (SF-268 CNS): 36100 nM
GI50 (SK-MEL-28 melanoma): 146 nM
TGI (SK-MEL-28 melanoma): 890 nM
GI50 (SF-539 CNS): 323 nM
TGI (SF-539 CNS): 5880 nM
GI50 (K-562 leukemia): 548 nM
TGI (K-562 leukemia): > 100000 nM
GI50 (MDA-MB-231 breast): 248 nM
TGI (MDA-MB-231 breast): > 100000 nM
GI50 (NCI-H460 NSCLC): 68.7 nM
TGI (NCI-H460 NSCLC): > 100000 nM
GI50 (SF-295 CNS): 106 nM
TGI (SF-295 CNS): 463 nM
